According to patent US11932595B2, “VDR-silent vitamin D derivative as inhibitors of SREBP and pharmaceutical use thereof” (KYOTO UNIVERSITY, priority 2020, dated 2024):

Columns and labels:
SREBP/SCAP = settings: Nagata, ACS Chem. Biol. 2019; cited from earlier work
[1] = cited from earlier work
VDR = VDR reporter assay (Cignal Vitamin D Receptor Reporter) in CHO-K1 cells; format: cell-based; settings: 5 μM compound, lipid-free medium, FIGS. 2 and 4
Protocol: (§1) Cell Culture: CHO-K1 cells were maintained in medium A (1:1 mixture of Ham's F-12 medium and DMEM, supplemented with 100 units/mL penicillin, 100 μg/mL streptomycin sulfate, and 5% [v/v] fetal bovine serum) at 37° C. in a humidified 5% CO2 incubator.
(§2) CHO-K1 cells were seeded into 96-well plates at 8×10^3 cells per well in medium A and incubated for 24 h. For SREBP reporter assay, cells were co-transfected with an SRE-1-driven luciferase reporter plasmid (pSRE-Luc) and an actin promoter-driven β-galactosidase expression plasmid (pAc-13-gal) at a 20:1 ratio, using FuGENE HD Transfection Reagent (Promega) according to the manufacturer's protocol.
For VDR reporter assay, Cignal Vitamin D Receptor Reporter (QIAGEN) was transfected instead of pSRE-Luc.
(§3) After 20 h, the medium was changed to medium B (1:1 mixture of Ham's F-12 medium and DMEM, supplemented with 100 units/mL penicillin, 100 μg/mL streptomycin sulfate, 5% [v/v] lipid-depleted serum, 50 μM compactin (Tokyo Chemical Industry), and 50 μM lithium mevalonate (Sigma-Aldrich) containing the specific test compounds. After 24 h incubation, the cells in each well were lysed with 100 μL of 1× Reporter Lysis Buffer (Promega), and 50 μL of aliquots were used to measure luciferase and 13-gal activities. Luciferase activity was measured using the Steady-Glo Luciferase Assay System (Promega), and 13-gal activity was measured using the 13-Galactosidase Enzyme Assay System (Promega). Luciferase activity was normalized to 13-gal activity.
For the VDR assay, CHO-K1 cells were treated with 5 μM of the compounds in a lipid-free medium. The same experiment using 25(OH)D3 (1) was performed as control. Values are mean±SD.

SREBP = SREBP luciferase reporter assay (pSRE-Luc) in CHO-K1 cells; format: cell-based; settings: for SREBP inhibitory activity (expression of SREBP-responsive luciferase reporter gene): CHO-K1 cells, 5 μM compound, lipid-free medium, 24 h, FIGS. 1 and 3
Protocol: as §1, §2, §3
[…] The same experiment using of 25(OH)D3 (1) was performed as control. Values are mean±SD.

SREBP-responsive genes = test: Short-term in vivo model (fasting/refeeding): hepatic mRNA of SREBP-responsive genes by real-time PCR; set-up: species or system mice; settings: for hepatic expression of SREBP-response genes ACC1 and FASN versus vehicle: 10 mg/kg intraperitoneally once every 24 hours, fasted 48 h/refed 48 h, n=3, FIG. 5C
Protocol: (§4) To quickly and simultaneously examine their SREBP inhibitory activity and VDR-derived calcemic activity in vivo, a short-term in vivo screening system of mice was established. With reference to the previous report (Horton, J. D. et al. Proc. Natl. Acad. Sci. U.S.A. 1998, 95, 5987-5992.), mice were fasted for 48 hours then refed a special diet (low fat, high carbohydrate diet, lacking in vitamin D) for 48 hours before sacrifice.
(§5) C57BL/6 and oh/oh mice were purchased from CLEA Japan and Charles River Japan, Inc., respectively. Animal experiments were carried out at the University of Tokyo and Charles River Laboratories. Low fat, high carbohydrate diet, lacking vitamin D was custom made by Research Diets, Inc. Compounds disclosed herein and 25(OH)D3 were dissolved in ethanol/Tween 20 (9:1) to obtain stock solution and then diluted 10-fold with PBS immediately before administration to mice.
(§6) 10 mg/kg compounds or vehicle control were administered intraperitoneally once every 24 hours during the fasting and refeeding.
Relative mRNA levels of SREBP-responsive genes were determined by real-time PCR in the livers obtained from the mice with free access to a normal diet or fasted and refed a special diet (means SEM, n=3 per group), *p<0.05.
Expression levels of SREBP-responsive genes were determined by real-time PCR in the livers obtained from the mice treated with indicated compounds (10 mg/kg) according to the protocol illustrated in FIG. 5A. Data are expressed as relative expression to the mean value of vehicle-treated mouse liver (means±SEM, n=3 per group), *p<0.05 (FIG. 5C).
Relative mRNA levels of SREBP-responsive genes were determined by real-time PCR in the livers obtained from the indicated mice Data are means±SEM (fed mice, n=3; others, n=6), *p<0.05 (FIG. 5E).

[2] = Short-term in vivo model: serum calcium levels; set-up: species or system mice; settings: 10 mg/kg intraperitoneally, after 4 days, n=3, FIG. 5D
Protocol: as §4, §5, §6
Following sacrifice, mouse livers were fixed in 10% neutral-buffered formalin, embedded in paraffin, sectioned, and stained with H&E. Hepatic lipids were extracted with chloroform/methanol (2:1 v/v), and TG and cholesterol contents were measured with Triglyceride Reagent Set (Pointe Scientific) and Cholesterol E (Wako), respectively. Serum levels of ALT, TG, glucose, cholesterol, and calcium were measured in SRL Inc. (Tokyo). All experiments were approved by the Ethics Committee for Animal Experimentation of the University of Tokyo and Charles River Laboratories Japan, and were conducted in accordance with the Guidelines for the Care and Use of Laboratory Animals.
Serum calcium levels in the mice treated with vehicle, compounds, or 25(OH)D3 were determined (means±SEM, n=3 per group), *p<0.05 (FIG. 5D).

[3] = Maynard et al. J Med. Chem. 1994; cited from earlier work

Row | Structure (SMILES) | VDR activity (VDR reporter activation) (VDR) | SREBP inhibitory activity (expression of SREBP-responsive luciferase reporter gene) (SREBP) | other results
1 | Cc1ccc(S(=O)(=O)N[C@@H]2C/C(=C/C=C3\CCC[C@]4(C)[C@@H]([C@H](C)CCCC(O)(C(F)(F)F)C(F)(F)F)CC[C@@H]34)C[C@@H](F)C2)cc1 [Compound 3] |  |  | effect on SREBP/SCAP and VDR activity in cultured cells (SREBP/SCAP): selectively impaired SREBP/SCAP without eliciting VDR activity; calcemic activity in vivo ([1]; high doses): residual calcemic activity; bioavailability ([1]; in vivo): low
2 | C[C@H](CCCC(C)(C)O)[C@H]1CC[C@H]2/C(=C/Cn3ncnn3)CCC[C@]12C [Compound 22] | detectable VDR activity |  | 
3 | C[C@H](CCCC(C)(C)O)[C@H]1CC[C@H]2/C(=C/Cn3cc(CCCCO)nn3)CCC[C@]12C [Compound 29, 6-[(1R,3aS,7aR,E)-4-{2-[4-(4-Hydroxybutyl)-1H-1,2,3-triazol-1-yl]ethylidene}-7a-methyloctahydro-1H-inden-1-yl]-2-methylheptan-2-ol] | detectable VDR activity |  | 
4 | C[C@H](CCCC(C)(C)O)[C@H]1CC[C@H]2/C(=C/Cn3cnnn3)CCC[C@]12C [Compound 21, (R)-6-{(1R,3aS,7aR,E)-4-[2-(1H-Tetrazol-1-yl)ethylidene]-7a-methyloctahydro-1H-inden-1-yl}-2-methylheptan-2-ol] | detectable VDR activity |  | 
5 | C[C@H](CCC(F)(F)C(C)(C)O)[C@H]1CC[C@H]2/C(=C/Cn3cc(-c4ccc(F)cc4)nn3)CCC[C@]12C [Compound 47, (R)-3,3-Difluoro-6-[(1R,3aS,7aR,E)-4-{2-[4-(4-fluorophenyl)-1H-1,2,3-triazol-1-yl]ethylidene}-7a-methyloctahydro-1H-inden-1-yl]-2-methylheptan-2-ol] | lacked in VDR activity | maintained SREBP inhibitory activities | 
6 | C[C@H](CCCC(C)(C)O)[C@H]1CC[C@H]2/C(=C/Cn3cc(-c4ccccn4)nn3)CCC[C@]12C [Compound 26, (R)-2-Methyl-6-[(1R,3aS,7aR,E)-7a-methyl-4-{2-[4-(pyridin-2-yl)-1H-1,2,3-triazol-1-yl]ethylidene}octahydro-1H-inden-1-yl]heptan-2-ol] | detectable VDR activity |  | 
7 | C[C@H](CCC(F)(F)C(C)(C)O)[C@H]1CC[C@H]2/C(=C/Cn3nnc(-c4ccc(F)cc4)n3)CCC[C@]12C [Compound 49, 3,3-Difluoro-6-[(1R,3aS,7aR,E)-4-{2-[5-(4-fluorophenyl)-2H-tetrazol-2-yl]ethylidene}-7a-methyloctahydro-1H-inden-1-yl]-2-methylheptan-2-ol] | lacked in VDR activity | maintained SREBP inhibitory activities | hepatic expression of SREBP-response genes ACC1 and FASN versus vehicle (SREBP-responsive genes): significantly suppressed; elevated hepatic expression of the three SREBP-responsive genes ACC1, FASN and SCD1 (SREBP-responsive genes; 10 mg/kg intraperitoneally, fasting/refeeding, FIG. 5C): mitigated the elevated expression; serum calcium levels [2]: no detectable increase
8 | C[C@H](CCCC(C)(C)O)[C@H]1CC[C@H]2/C(=C/C(=O)N3CCCCC3)CCC[C@]12C [Compound 19, 2-{(1R,3 aS,7 aR,E)-1-[(R)-6-Hydroxy-6-methylheptan-2-yl]-7a-methyloctahydro-4H-inden-4-ylidene}-1-(piperidin-1-yl)ethan-1-one] |  | little effect | 
9 | C[C@H](CCCC(O)(C(F)(F)F)C(F)(F)F)[C@H]1CC[C@H]2/C(=C/Cn3cc(-c4ccccc4)nn3)CCC[C@]12C [Compound 38, (R)-1,1,1-Trifluoro-6-{(1R,3aS,7aR,E)-7a-methyl-4-[2-(4-phenyl-1H-1,2,3-triazol-1-yl)ethylidene]octahydro-1H-inden-1-yl}-2-(trifluoromethyl)heptan-2-ol] |  |  | hepatic expression of SREBP-response genes ACC1 and FASN versus vehicle (SREBP-responsive genes): significantly suppressed; serum calcium levels [2]: elevated levels of serum calcium
10 | C[C@H](CCCC(C)(C)O)[C@H]1CC[C@H]2/C(=C/C(=O)N3CCOCC3)CCC[C@]12C [Compound 20, 2-{(1R,3aS,7aR,E)-1-[(R)-6-Hydroxy-6-methylheptan-2-yl]-7a-methyloctahydro-4H-inden-4-ylidene}-1-morpholinoethan-1-one] |  | little effect | 
11 | CC1=C(/C=C\C2=CCC[C@@]3(C)[C@@H]2CC[C@@H]3[C@H](C)CCCC(C)(C)O)C[C@@H](O)C[C@@H]1O [14-epi-25(OH) D3, reference compound] |  |  | expression of an SREBP-responsive luciferase reporter (SREBP; screening of in-house collection, data not shown): comparable level to 25(OH)D3; calcemic action [3]: markedly decreased calcemic action
12 | C[C@H](CCCC(O)(C(F)(F)F)C(F)(F)F)[C@H]1CC[C@H]2/C(=C/Cn3cc(-c4ccc(F)cc4)nn3)CCC[C@]12C [Compound 39, (R)-1,1,1-Trifluoro-6-[(1R,3aS,7aR,E)-4-{2-[4-(4-fluorophenyl)-1H-1,2,3-triazol-1-yl]ethylidene}-7a-methyloctahydro-1H-inden-1-yl]-2-(trifluoromethyl)heptan-2-ol] | lacked in VDR activity | maintained SREBP inhibitory activities | hepatic expression of SREBP-response genes ACC1 and FASN versus vehicle (SREBP-responsive genes): significantly suppressed; serum calcium levels [2]: elevated levels of serum calcium
13 | C[C@H](CCC(F)(F)C(C)(C)O)[C@H]1CC[C@H]2/C(=C/Cn3nnnc3-c3ccc(F)cc3)CCC[C@]12C [Compound 51, (R)-3,3-Difluoro-6-[(1R,3aS,7aR,E)-4-{2-[5-(4-fluorophenyl)-1H-tetrazol-1-yl]ethylidene}-7a-methyloctahydro-H-inden-1-yl]-2-methylheptan-2-ol] | lacked in VDR activity | maintained SREBP inhibitory activities | 
